Values after ≈ are worked out from the molar mass of the structure shown. “Also recorded” adds a separate entry of the source.
Columns and labels:
[1] = Evaluation of amorphous free base: slurry in solvent, 2 days; assay type: physicochemical; conditions: for Resulting crystal form: room temperature, 2 days
Experimental: 100 mg of the amorphous free base sample obtained in the present invention was weighed and a solvent was added to form a suspension. The mixture was stirred at room temperature for 2 days, and the results are as follows: […]

[2] = Solid state stability study, 7 days; assay type: physicochemical; conditions: for Purity: 10080 min; for Crystal stability (in words): 60 °C/closed and 40 °C/75% RH; for Initial purity: stability baseline; for Solid-state stability (in words): summary; for HPLC purity (area %) at 168 h: solid state
Experimental: (§1) HPLC analysis was performed using Agilent HPLC 1260 series instruments.

[3] = Pharmacokinetic studies in animals, summary statements; assay type: in vivo; conditions: for In vivo exposure levels in animals (in words): summary; for Absorption (in words) / Bioavailability in vivo (in words) / Blood drug concentration distribution (in words) / Stability in vivo (in words): pharmacokinetic studies
[4] = Rat pharmacokinetics after single oral administration; assay type: in vivo, SD rats; conditions: for In vivo exposure level (in words): compared with free base crystal form I
[5] = Dog pharmacokinetics after single oral administration; assay type: in vivo, dogs; conditions: compared with free base crystal form I
[6] = Rough solubility of free base crystal form I in solvents by visual inspection; assay type: physicochemical; conditions: room temperature
[7] = Solubility test in biological media and water at 37 °C (HPLC); assay type: physicochemical; conditions: for Solubility: calculated using free base
Experimental: as §1
The solubility of salt was calculated using free base.

[8] = gavage, 10 mpk, 0.5% MC + 1% tween 80, plasma, 10 mg/kg
[9] = FaSSIF (pH = 6.49), 0.5 h, 37 °C, LOQ ~1.0 μg/mL
[10] = FaSSIF (pH = 6.49), solution at 0.5 h
[11] = FaSSIF (pH = 6.49), solution at 2.0 h
[12] = FaSSIF (pH = 6.49), solution at 24 h
[13] = FeSSIF (pH = 5.00), solution at 0.5 h
[14] = FeSSIF (pH = 5.00), solution at 2.0 h
[15] = FeSSIF (pH = 5.00), solution at 24 h
[16] = SGF (pH = 1.19), solution at 0.5 h
[17] = SGF (pH = 1.19), solution at 2.0 h
[18] = SGF (pH = 1.19), solution at 24 h
[19] = Water (pH = 5.45), 0.5 h/2 h/24 h, 37 °C, LOQ ~1.0 μg/mL
[20] = Water (pH = 5.45), solution at 0.5 h
[21] = Water (pH = 5.45), solution at 2.0 h
[22] = Water (pH = 5.45), solution at 24 h

Row | Structure (SMILES) | XRPD ([2]; 40 °C/75% RH, 7 days) | Purity ([2]; 40 °C/75% RH, 7 days) [Area %] | XRPD ([2]; 60 °C/Closed, 7 days) | Purity ([2]; 60 °C/Closed, 7 days) [Area %] | Crystal stability (in words) ([2]; 7 days) | Initial purity [2] [Area %] | In vivo exposure levels in animals (in words) [3] | Absorption (in words) [3] | Bioavailability in vivo (in words) [3] | Blood drug concentration distribution (in words) [3] | Stability in vivo (in words) [3] | In vivo exposure level (in words) [4] | In vivo exposure level (in words) [5] | AUC0-last [4, 8] [ng·h/mL] | AUCINF [4, 8] [ng·h/mL] | Solid-state stability (in words) [2] | Solubility [7, 9] | pH [7, 10] | pH [7, 11] | pH [7, 12] | also measured
1 | CCn1ncc2c(Nc3cc(C)[nH]n3)nc([C@H]3CC[C@](OC)(C(=O)N[C@@H](C)c4cnc(-n5cc(F)cn5)cn4)CC3)nc21 [Amorphous free base] |  |  |  |  |  |  |  |  |  |  |  |  |  |  |  |  |  |  |  |  | Resulting crystal form ([1]; Acetone suspension): form III; Resulting crystal form ([1]; Methanol suspension): form I; Stability of amorphous sample (in words) ([1]; in the solvent): unstable and easily transformed into other crystal forms in the solvent
2 | CCn1ncc2c(Nc3cc(C)[nH]n3)nc([C@H]3CC[C@](OC)(C(=O)N[C@@H](C)c4cnc(-n5cc(F)cn5)cn4)CC3)nc21 [Free base crystal form III] | Unchanged | 99.253 | Unchanged | 99.212 | good | 99.316 | higher animal exposure levels compared to the free base crystal form I | easy to absorb | high bioavailability | good blood drug concentration distribution | good stability in vivo | higher than those of free base crystal form I | higher than those of free base crystal form I |  |  |  |  |  |  |  | 
3 | CCn1ncc2c(Nc3cc(C)[nH]n3)nc([C@H]3CC[C@](OC)(C(=O)N[C@@H](C)c4cnc(-n5cc(F)cn5)cn4)CC3)nc21 [Free base crystal form I] |  |  |  |  |  |  |  |  |  |  |  |  |  | 1172.00 | 1197.00 |  |  |  |  |  | Cmax [4, 8]: 158.00 ng/mL; T1/2 [4, 8]: 2.69 h; Solubility ([6]; 2-Me-THF): 11.1 to 12.5 mg/mL; Solubility ([6]; Acetone): 7.1 to 8.3 mg/mL; Solubility ([6]; DCM): 4.6 to 5.0 mg/mL; Solubility ([6]; EA): 2.2 to 2.3 mg/mL; Solubility ([6]; IPAc): 1.5 to 1.6 mg/mL; Solubility ([6]; THF): 41.7 to 50.0 mg/mL; Solubility ([6]; organic solvent or mixture, ACN, read-out: Solubility): ~0.8 mg/mL (≈ 1.36 mM); Solubility in the remaining solvents (in words) ([6]; solvents other than DMSO and THF): poor solubility
4 | CCn1ncc2c(Nc3cc(C)[nH]n3)nc([C@H]3CC[C@](OC)(C(=O)N[C@@H](C)c4cnc(-n5cc(F)cn5)cn4)CC3)nc21 [Fumarate crystal form I] | Unchanged | 97.914 | Unchanged | 98.119 | good | 98.062 | excellent in vivo exposure levels; also recorded: higher animal exposure levels compared to the free base crystal form I | easy to absorb | high bioavailability | good blood drug concentration distribution | good stability in vivo | higher than those of free base crystal form I | higher than those of free base crystal form I |  |  | good solid-state stability | <LOQ^1 | 6.48 | 6.54 | 5.91 | Chemical purity change (in words) ([2]; 40 °C/75% RH, 7 days): slightly decreases; Stability (in words) ([2]; closed high temperature condition (60 °C), 7 days): good; pH [7, 13]: 5.01; pH [7, 14]: 5.03; pH [7, 15]: 4.93; pH [7, 16]: 1.17; pH [7, 17]: 1.22; pH [7, 18]: 1.27; Solubility [7, 19]: <LOQ; pH [7, 20]: 5.22; pH [7, 21]: 5.84; pH [7, 22]: 3.50; XRPD (24 h) ([7]; solid form after 24 h in FaSSIF (pH = 6.49)): amorphous
5 | CCn1ncc2c(Nc3cc(C)[nH]n3)nc([C@H]3CC[C@](OC)(C(=O)N[C@@H](C)c4cnc(-n5cc(F)cn5)cn4)CC3)nc21 [Malate crystal form I] | Unchanged |  | Unchanged |  | good | 98.772 | excellent in vivo exposure levels; also recorded: higher animal exposure levels compared to the free base crystal form I | easy to absorb | high bioavailability | good blood drug concentration distribution | good stability in vivo | higher than those of free base crystal form I | higher than those of free base crystal form I | 1209.00 | 1217.00 | good solid-state stability | <LOQ | 6.45 | 6.30 | 5.61 | HPLC purity (area %) at 168 h ([2]; 40 °C/75% RH, 7 days): 98.7%; HPLC purity (area %) at 168 h ([2]; 60 °C/Closed, 7 days): 98.8%; Solubility ([7]; FaSSIF (pH = 6.49), 24 h, 37 °C, LOQ ~1.0 μg/mL): <LOQ; pH [7, 13]: 4.95; pH [7, 14]: 4.96; pH [7, 15]: 4.90; Solubility ([7]; SGF (pH = 1.19), 0.5 h, 37 °C, 30 min): 204.753 µg/mL; Solubility ([7]; SGF (pH = 1.19), 24 h, 37 °C, 1440 min): 79.977 µg/mL; pH [7, 16]: 1.27; pH [7, 17]: 1.29; pH [7, 18]: 1.33; Maximum solubility ([7]; SGF medium, 0.5 hours, 37 °C, 30 min): 0.20 mg/mL; Solubility [7, 19]: <LOQ; pH [7, 20]: 4.76; pH [7, 21]: 4.19; pH [7, 22]: 3.88; XRPD (24 h) ([7]; solid form after 24 h in FeSSIF (pH = 5.00)): amorphous
